Assay results from ChEMBL document CHEMBL4715725, “Structure-activity relationship studies on acremomannolipin A, the potent calcium signal modulator with a novel glycolipid structure 4: Role of acyl side chains on d-mannose” (Eur J Med Chem, 2016).
Calls of active or inactive are those of the source. The calls are words filed in the database; no cut-off is given here.

Test system: Schizosaccharomyces pombe
Test: Suppression of Cl-sensitive growth defect in Schizosaccharomyces pombe harboring h+leu1 ura4-D18 ppb1::ura4+ mutant assessed as colony formation at 100 uM measured after 3 days in presence of MgCl2 by disc filter paper
Format: functional, organism-based
Conditions: time 3.0 day

Compound	Activity
CCCCCCCC(=O)O[C@@H]1[C@H](OC[C@@H](O)[C@@H](O)[C@H](O)[C@H](O)CO)O[C@H](COC(=O)CCCC)[C@@H](OC(=O)CCCC)[C@@H]1OC(=O)CCCC	Active
CCCCCC(=O)OC[C@H]1O[C@@H](OC[C@@H](O)[C@@H](O)[C@H](O)[C@H](O)CO)[C@@H](OC(=O)CCCC)[C@@H](OC(=O)CCCCC)[C@@H]1OC(=O)CCCCC	Active
CCCCCCCCCCCC(=O)O[C@@H]1[C@H](OC[C@@H](O)[C@@H](O)[C@H](O)[C@H](O)CO)O[C@H](COC(=O)CCCCC)[C@@H](OC(=O)CCCCC)[C@@H]1OC(=O)CCCCC	Active
CCCCCCCC(=O)O[C@@H]1[C@H](OC[C@@H](O)[C@@H](O)[C@H](O)[C@H](O)CO)O[C@H](COC(=O)CCCCC)[C@@H](OC(=O)CCCCC)[C@@H]1OC(=O)CCCCC	Active
CCCCC(=O)OC[C@H]1O[C@@H](OC[C@@H](O)[C@@H](O)[C@H](O)[C@H](O)CO)[C@@H](OC(=O)CCCC)[C@@H](OC(=O)CCCC)[C@@H]1OC(=O)CCCC	Active
CCCCCCCC(=O)O[C@@H]1[C@H](OC[C@@H](O)[C@@H](O)[C@H](O)[C@H](O)CO)O[C@H](COC(=O)CCCCCC)[C@@H](OC(=O)CCCCCC)[C@@H]1OC(=O)CCCCCC	Active
CCCCCCC(=O)O[C@@H]1[C@H](OC[C@@H](O)[C@@H](O)[C@H](O)[C@H](O)CO)O[C@H](COC(=O)CCCCC)[C@@H](OC(=O)CCCCC)[C@@H]1OC(=O)CCCCC	Active
CCCC(=O)OC[C@H]1O[C@@H](OC[C@@H](O)[C@@H](O)[C@H](O)[C@H](O)CO)[C@@H](OC(=O)CCC)[C@@H](OC(=O)CCC)[C@@H]1OC(=O)CCC	Active
CCCCCC(=O)OC[C@H]1O[C@@H](OC[C@@H](O)[C@@H](O)[C@H](O)[C@H](O)CO)[C@@H](OC(=O)CCC)[C@@H](OC(=O)CCCCC)[C@@H]1OC(=O)CCCCC	Active
CCCCCCCCCCCCCC(=O)O[C@@H]1[C@H](OC[C@@H](O)[C@@H](O)[C@H](O)[C@H](O)CO)O[C@H](COC(=O)CCCCC)[C@@H](OC(=O)CCCCC)[C@@H]1OC(=O)CCCCC	Active
CCCCCCC(=O)OC[C@H]1O[C@@H](OC[C@@H](O)[C@@H](O)[C@H](O)[C@H](O)CO)[C@@H](OC(=O)CCCCCC)[C@@H](OC(=O)CCCCCC)[C@@H]1OC(=O)CCCCCC	Active
CCCCCCCCCCC(=O)O[C@@H]1[C@H](OC[C@@H](O)[C@@H](O)[C@H](O)[C@H](O)CO)O[C@H](COC(=O)CCCCC)[C@@H](OC(=O)CCCCC)[C@@H]1OC(=O)CCCCC	Active
CCC(=O)OC[C@H]1O[C@@H](OC[C@@H](O)[C@@H](O)[C@H](O)[C@H](O)CO)[C@@H](OC(=O)CC)[C@@H](OC(=O)CC)[C@@H]1OC(=O)CC	Active
CCCCCCCC(=O)O[C@@H]1[C@H](OC[C@@H](O)[C@@H](O)[C@H](O)[C@H](O)CO)O[C@H](COC(=O)CCC)[C@@H](OC(=O)CCC)[C@@H]1OC(=O)CCC	Active
CCCCCCCC(=O)O[C@@H]1[C@H](OC[C@@H](O)[C@@H](O)[C@H](O)[C@H](O)CO)O[C@H](CO)[C@@H](O)[C@@H]1OC(=O)CCCCC	inactive
CCCCCC(=O)OC[C@H]1O[C@@H](OC[C@@H](O)[C@@H](O)[C@H](O)[C@H](O)CO)[C@@H](O)[C@@H](OC(=O)CCCCC)[C@@H]1OC(=O)CCCCC	inactive
CCCCCCCCCCCCCCCC(=O)O[C@@H]1[C@H](OC[C@@H](O)[C@@H](O)[C@H](O)[C@H](O)CO)O[C@H](COC(=O)CCCCC)[C@@H](OC(=O)CCCCC)[C@@H]1OC(=O)CCCCC	Active
CCCCCC(=O)OC[C@H]1O[C@@H](OC[C@@H](O)[C@@H](O)[C@H](O)[C@H](O)CO)[C@@H](OC(=O)CCCCC)[C@@H](OC(=O)CCCCC)[C@@H]1OC(=O)CCCCC	Active
CCCCCCCC(=O)O[C@@H]1[C@H](OC[C@@H](O)[C@@H](O)[C@H](O)[C@H](O)CO)O[C@H](COC(=O)CC)[C@@H](OC(=O)CC)[C@@H]1OC(=O)CC	Active
CCCCCC(=O)OC[C@H]1O[C@@H](OC[C@@H](O)[C@@H](O)[C@H](O)[C@H](O)CO)[C@@H](OC(=O)CC)[C@@H](OC(=O)CCCCC)[C@@H]1OC(=O)CCCCC	Active
CCCCCCCCCC(=O)O[C@@H]1[C@H](OC[C@@H](O)[C@@H](O)[C@H](O)[C@H](O)CO)O[C@H](COC(=O)CCCCC)[C@@H](OC(=O)CCCCC)[C@@H]1OC(=O)CCCCC	Active
CCCCCCCC(=O)OC[C@H]1O[C@@H](OC[C@@H](O)[C@@H](O)[C@H](O)[C@H](O)CO)[C@@H](OC(=O)CCCCCCC)[C@@H](OC(=O)CCCCCCC)[C@@H]1OC(=O)CCCCCCC	Active
CCCCCCCCC(=O)O[C@@H]1[C@H](OC[C@@H](O)[C@@H](O)[C@H](O)[C@H](O)CO)O[C@H](COC(=O)CCCCC)[C@@H](OC(=O)CCCCC)[C@@H]1OC(=O)CCCCC	Active
CCCCCCCC(=O)O[C@@H]1[C@H](OC[C@@H](O)[C@@H](O)[C@H](O)[C@H](O)CO)O[C@H](COC(=O)CCCCC)[C@@H](OC(=O)CCCCC)[C@@H]1O	inactive
